{
  "source": "paper PMC9785397",
  "about": "“Exploiting Conserved Quorum Sensing Signals in Streptococcus mutans and Streptococcus pneumoniae” (Microorganisms, 2022)",
  "key": {"[1]": {"test_system": "S. mutans", "experiment": "microbe, parasite or virus in culture", "type": "cell-based, Streptococcus mutans", "conditions": "peptides 0–50 μM, 16 h, 37 °C, microaerophilic, A620 nm, three separate experiments", "excerpt": "(§1) Streptococcus mutans Clarke (strain designation NCTC 10449), Pseudomonas aeruginosa (Schroeter) Migula (strain designation PAO1), Fusobacterium nucleatum, subspecies nucleatum (strain VPI 4355), and Porphyromonas gingivalis (strain 2561) were purchased from ATCC (LGC Standards Srl, Milan, Italy). Streptococcus mitis, Streptococcus oralis, and Streptococcus sanguinis were obtained from clinical isolates and characterized by morphological, biochemical, and molecular typing. S. mutans, S. mitis, S. oralis, and S. sanguinis were maintained in Brain Heart Infusion (BHI) broth or agar under microaerophilic conditions. P. aeruginosa was maintained in trypticase soy (TS) agar or broth. F. nucleatum was maintained in TS agar or broth with defibrinated sheep blood under anaerobic conditions. P. gingivalis was maintained in ATCC Medium 2722 supplemented with TS broth or agar under anaerobic conditions. Before the experiments, bacterial cultures were inoculated in fresh media (dilution 1:100) and grown for 16 h at 37 °C.\n(§2) The antimicrobial activities of the tested peptides were assessed through the determination of the minimum inhibitory concentration (MIC) standardized by the Clinical and Laboratory Standards Institute. Bacterial inocula were diluted in 10 mL of MHB […]. The concentration of the bacteria was adjusted to 0.5 McFarland standard, and the bacteria were dispensed in 96-well microtiter plates (final bacterial concentration: 1 × 10^4 CFU/well). Peptides were dissolved in sterile water (stock concentration: 2 mM) and added at final concentrations ranging from 0 to 50 µM. Plates were incubated at 37 °C for 16 h. At the end of incubation, bacterial growth was recorded using a microplate reader (Varioskan Lux Reader; Thermo Fisher Scientific, Milan, Italy) by quantifying the adsorption at 620 nm. Cultures were then opportunely diluted and seeded on agar plates. Bacterial cultures inoculated with the highest final concentration of the vehicle (sterile water) or chlorhexidine hydrochloride salt (CHX, concentration range: 0.05 to 500 μg/mL; Merck, Milan, Italy) were included as controls in each test. Experiments were performed in triplicate."}, "[2]": {"test_system": "S. oralis", "experiment": "microbe, parasite or virus in culture", "type": "cell-based, Streptococcus oralis", "conditions": "peptides 0–50 μM, 16 h, 37 °C, microaerophilic, A620 nm, three separate experiments", "excerpt": "as §1, §2"}, "[3]": {"test_system": "S. sanguinis", "experiment": "microbe, parasite or virus in culture", "type": "cell-based, Streptococcus sanguinis", "conditions": "peptides 0–50 μM, 16 h, 37 °C, microaerophilic, A620 nm, three separate experiments", "excerpt": "as §1, §2"}, "[4]": {"test_system": "S. mutans bacteriocin production against S. oralis", "experiment": "Bacteriocin overlay assay, S. mutans spotted on S. oralis", "type": "cell-based, Streptococcus mutans", "conditions": "CSP1 20 μM alone vs vehicle, 16 h, 37 °C, microaerophilic", "protocol": "(§3) During the formation of complex biofilm such as dental plaque, the ability of S. mutans to compete with other commensal species determines the success of the cariogenesis process. S. mutans uses antibacterial peptides, namely, bacteriocins, to overcome and subvert the composition of dental microbiota. We investigated the production of bacteriocins using the overlay assay. Overnight cultures of S. mitis, S. oralis, S. sanguinis, P. aeruginosa, F. nucleatum, or P. gingivalis were diluted 1:100 in BHI or TS broth and incubated at 37 °C until they reached an OD620 of 0.3. Cultures were added with agar (BD Difco^TM Agar) at the final concentration of 1.5% w/v and transferred in plates. Overnight cultures of S. mutans were diluted 1:100 in BHI and added with peptides (20 μM) or the vehicle with or without CSP1. Culture media were supplemented with agar to reach the final concentration of 0.7% w/v. The solutions were spotted on the surface of agar plates prepared as described above. The plates were kept on the benchtop for 30 min, allowing the agar containing S. mutans to solidify, and then incubated at 37 °C for 16 h under microaerophilic or anaerobic conditions, as required.\n(§4) Spots (10 for each experimental group) were acquired and analyzed using NIH Image J software (version 1.53t August 2022, https://imagej.nih.gov/ij/index.html; accessed on 7 September 2022). The appearance of a clear area on the plate (bacterial growth inhibition) was evaluated as indicative of bacteriocin activity. The diameters of the area were measured in a blinded fashion."}, "[5]": {"test_system": "S. mutans bacteriocin production against S. sanguinis", "experiment": "Bacteriocin overlay assay, S. mutans spotted on S. sanguinis", "type": "cell-based, Streptococcus mutans", "conditions": "CSP1 20 μM alone vs vehicle, 16 h, 37 °C, microaerophilic", "protocol": "as §3, §4"}, "[6]": {"test_system": "S. mutans bacteriocin production against P. aeruginosa", "experiment": "Bacteriocin overlay assay, S. mutans spotted on P. aeruginosa", "type": "cell-based, Streptococcus mutans", "conditions": "CSP1 20 μM, microaerophilic, experimental control", "protocol": "as §3, with “The plates were kept on the benchtop for 30 min, allowing the agar containing S. mutans to solidify, and then incubated at 37 °C for 16 h under microaerophilic or anaerobic conditions, as required.” left out\nas §4"}, "[7]": {"test_system": "bip gene", "experiment": "qRT-PCR, bip gene expression", "type": "cell-based, Streptococcus mutans", "conditions": "CSP1 20 μM vs vehicle, 2–24 h, maximum at 8 h, qPCR", "protocol": "(§5) S. mutans was cultured in BHI supplemented with peptides or the vehicle. Cultures were centrifuged, and total RNA was isolated and purified from the bacterial pellets using the GRS Total RNA Kit—Bacteria (GK16.0100; GRISP Research Solution, Porto, Portugal), following the manufacturer’s instructions. Purified RNA was subjected to DNase I treatment to remove contaminating DNA. The RNA yield and purity were assessed by measuring the absorbance, and only samples with a ratio of 260/280 nm in the 1.8–2 range were used. cDNA was generated using the cDNA RT kit with an RNAse inhibitor (Applied Biosystems; Monza, Milan). Quantitative PCR (qRT-PCR) was performed using SYBR green mixture (iScript One Step RT-PCR kit; Bio-Rad, Segrate, Milan) to determine the transcript levels of genes using the oligonucleotides listed in Table 3. The gyrA gene served as the housekeeping gene."}, "[8]": {"test_system": "vicK gene", "experiment": "qRT-PCR, vicK gene expression in biofilm", "type": "cell-based, Streptococcus mutans", "conditions": "CSP1 20 μM vs vehicle, 16 h, qPCR", "protocol": "as §5"}, "[9]": {"test_system": "comD gene", "experiment": "qRT-PCR, comD gene expression", "type": "cell-based, Streptococcus mutans", "conditions": "CSP1 20 μM, planktonic, 8 h, qPCR", "protocol": "as §5"}, "[10]": {"test_system": "comC gene", "experiment": "qRT-PCR, comC gene expression", "type": "cell-based, Streptococcus mutans", "conditions": "CSP1 20 μM, 8 h, qPCR", "protocol": "as §5"}},
  "data": [
    {"smiles": "CC[C@H](C)[C@H](NC(=O)[C@H](Cc1ccccc1)NC(=O)[C@H](CC(=O)O)NC(=O)[C@H](CCCNC(=N)N)NC(=O)[C@H](Cc1ccccc1)NC(=O)[C@H](Cc1ccccc1)NC(=O)[C@H](CCCCN)NC(=O)[C@H](CO)NC(=O)[C@H](CC(C)C)NC(=O)[C@H](CCCNC(=N)N)NC(=O)[C@H](CCSC)NC(=O)[C@@H](N)CCC(=O)O)C(=O)N[C@@H](CC(C)C)C(=O)N[C@@H](CCC(N)=O)C(=O)N[C@@H](CCCNC(=N)N)C(=O)N[C@@H](CCCCN)C(=O)N[C@@H](CCCCN)C(=O)O", "note": "[CSP1]", "values": [
      {"measurement": "Minimum inhibitory concentration (MIC), S. mutans", "setting": "[1]", "value": 30, "unit": "µM"},
      {"measurement": "Minimum inhibitory concentration (MIC), S. oralis", "setting": "[2]", "value": 25, "unit": "µM"},
      {"measurement": "Minimum inhibitory concentration (MIC), S. sanguinis", "setting": "[3]", "value": 21, "unit": "µM"},
      {"measurement": "Growth inhibition of co-cultured S. oralis by S. mutans stimulated with peptide (diameter of clear area)", "setting": "[4]", "value": "significantly inhibited the growth"},
      {"measurement": "Growth inhibition of co-cultured S. sanguinis by S. mutans stimulated with peptide (diameter of clear area)", "setting": "[5]", "value": "significantly inhibited the growth"},
      {"measurement": "Replication of P. aeruginosa in presence of S. mutans stimulated with peptide", "setting": "[6]", "value": "not affected"},
      {"measurement": "Expression of bip in S. mutans", "setting": "[7]", "value": "induced the expression"},
      {"measurement": "Expression of vicK in S. mutans biofilm", "setting": "[8]", "value": "significantly increased"},
      {"measurement": "Expression of comD in S. mutans", "setting": "[9]", "value": "increased the expression"},
      {"measurement": "Expression of comC in S. mutans", "setting": "[10]", "value": "no effects"}
    ]}
  ]
}
